The results in this text go back to patent US20210308089A1, “METHODS OF TREATING AND/OR PREVENTING VIRAL INFECTIONS AND/OR DISEASES CAUSED BY VIRUSES IN A SUBJECT IN NEED THEREOF” (priority 2020, published 2021).

The conditions of the data set: human, in vivo, 1 year. On the procedure:
Additional laboratory tests: Additional laboratory tests were performed and included: • A urine pregnancy test was administered to women of childbearing potential at certain visits as listed in schedule of procedures (Table 1). The urine pregnancy tests were performed at the Research Site utilizing marketed test kits, or at a certified clinical laboratory; • A fasting blood sample (10 mL) for archiving. This sample was collected only at sites in countries where allowed by local regulations and at sites for which approved by the IRB or IEC. The plasma from the archiving sample was stored frozen in 2 separate equal aliquots, and was used at the Sponsor's discretion to perform repeat analyses described in the protocol or to perform other tests related to cardiovascular health; and • Potential non-genetic bioassays were performed, including but not limited to: Apo A1, Apo C3, Apo E, NMR lipid profile (particle size and number), oxidized LDL, Lp(a), Lp-PLA2, serum fatty-acids concentrations, and gamma-glutamyltransferase (GGT).
In addition, the following were analyzed as tertiary endpoints for the ITT population: • Relationship between on-treatment hs-CRP and the primary and key secondary endpoints; and • Relationship between on-treatment serum eicosapentaenoic acid (EPA) and the primary and key secondary endpoints. […]

As to `CC/C=C\C/C=C\C/C=C\C/C=C\C/C=C\CCCC(=O)OCC` [icosapent ethyl, eicosapentaenoic acid ethyl ester], the “EPA between group difference, median % change from baseline” value turned out to be 358.8% and the “EPA between group difference, median absolute change from baseline” value was 114.9 µg/mL.
